Assay results published in patent US20120251619A1, “MicroRNA-29a,b,c as a Tumor Suppressor and Sensitizing Agent for Chemotherapy” (priority 2011, published 2012).
“Also recorded” adds a separate entry of the source.

Tests used:
Format in all cases: cell-based, human
OVCAR-8 cells = assay: Proliferation/viability under cisplatin treatment after miR-29a transfection; settings: OVCAR-8, miR-29a 72 h, cisplatin 0-7.5 μg/mL for 48 h
Experimental: (§1) FIGS. 6A-6B: Effect of miR-29a (72 h) on proliferation, under a range of concentrations of cisplatin treatment (at 48 h) of HEYA8 (FIG. 6A) and OVCAR-8 cells (FIG. 6B). Error bars are standard error. Proliferation curves of the parental HEYA8 strain treated with a scrambled control sequence and with microRNA mimics for miR-29a are shown.
(§2) The time course MTS assay experiments were run three times (separate days), each with a different set of biological quadruplicates (n=12 per group); within each experiment run, the viability measures within each time point were centered on the mean of the WT group for the first run. For cisplatin treatment, cells were transfected as described, and media was replaced after 24 hrs with media containing cisplatin (Sigma) (0-7.5 μg/mL). Viability was assayed 72 hrs post-transfection. Experiments were run three times, each with a different biological replicate (n=3 per group). For each run, viability measures within each concentration point were centered on the mean of values for the first run.

HEYA8 cells = assay: as above; settings: HEYA8, miR-29a 72 h, cisplatin 0-7.5 μg/mL for 48 h, vs scrambled control at same cisplatin dosage
Experimental: as §1, §2

CDC6 = assay: QPCR of gene target after miR-29a overexpression in HEYA8 cells; settings: HEYA8, forced miR-29a expression vs scrambled control and untreated
Experimental: (§3) FIG. 4: QPCR analysis showing relative quantity of selected miR-29a anti-correlated gene targets after miR29a overexpression in HEYA8 ovarian cancer cells (SCR, scrambled control; WT, untreated; two-sided t-test P<0.05, mir-29a vs SCR and miR-29a vs WT, each comparison, except for SAE1).
(§4) Total RNA (60 ng) was reverse transcribed in a 40 μl reaction using the TaqMan® MicroRNA Reverse Transcription Kit (ABI). QPCR was performed on a StepOne Real-Time PCR System (ABI) using Power-SYBR Green PCR Master Mix (ABI) in a 20 μl reaction and human ribosomal RNA 18s as an endogenous control (which was itself not miR-29a-regulated, data not shown). The QPCR experiments were run four times (separate days), each with independent biological samples (n=4 per group); within each experiment run, relative expression values were normalized to standard deviations from the mean.

CBX1 = assay: as above; settings: HEYA8, forced miR-29a expression vs scrambled control and untreated
Experimental: as §3, §4

SAE1 = assay: as above; settings: HEYA8, forced miR-29a expression vs scrambled control and untreated
Experimental: as §3, §4

MYBL2 = assay: as above; settings: HEYA8, forced miR-29a expression vs scrambled control and untreated
Experimental: as §3, §4

DNMT3A = assay: as above; settings: HEYA8, forced miR-29a expression vs scrambled control and untreated
Experimental: as §3, §4

TIMELESS = assay: as above; settings: HEYA8, forced miR-29a expression vs scrambled control and untreated
Experimental: as §3, §4

DNMT3B = assay: as above; settings: HEYA8, forced miR-29a expression vs scrambled control and untreated
Experimental: as §3, §4

[1] = system: HEYA8 cells (p53-wild type ovarian cancer); assay: MTS proliferation assay after transient transfection of miR-29a mimic; settings: HEYA8, miR-29a mimic transiently transfected, vs parental strain and scrambled control, 48 h and 72 h
Experimental: (§5) For the in vitro evaluation of miR-29a on cell proliferation of ovarian cancer cells, microRNA mimics of miR-29a were transiently transfected into the p53-deficient ovarian cancer cell line OVCAR8 and the p53-wild type HEYA8 and the impact of this microRNA on cell proliferation was measured by increase in absorbance from the […].
as §2

[2] = system: OVCAR-8 cells (p53-deficient ovarian cancer); assay: as above; settings: OVCAR8, miR-29a mimic transiently transfected, vs parental strain and scrambled control, 48 h and 72 h
Experimental: as §5, §2

miR-29a: microRNA mimic of miR-29a (5′-TAGCACCATCTGAAATCGGTTA-3′, SEQ ID NO: 13), transiently transfected into ovarian cancer cells (listed as DNA, chemistry not given here)
effect on proliferation under cisplatin treatment (OVCAR-8 cells): had an additional effect on chemotherapeutic agent cisplatin in inhibiting the growth | effect on proliferation under cisplatin treatment (HEYA8 cells): suppress the proliferation of HEYA8 significantly more effectively than the scrambled control; also recorded: suppresses the proliferation of HEYA8 significantly more effectively than the scrambled control | relative quantity of CDC6 transcript (QPCR) (CDC6): repressed | relative quantity of CBX1 transcript (QPCR) (CBX1): repressed | relative quantity of SAE1 transcript (QPCR) (SAE1): no functional repression | relative quantity of MYBL2 transcript (QPCR) (MYBL2): repressed | relative quantity of DNMT3A transcript (QPCR) (DNMT3A): repressed | relative quantity of TIMELESS transcript (QPCR) (TIMELESS): repressed | relative quantity of DNMT3B transcript (QPCR) (DNMT3B): repressed | effect on cell proliferation [1]: very significantly suppress cell proliferation | effect on cell proliferation [2]: moderately suppress cell proliferation
